According to US20160271153A1, “Novel Methods For The Treatment Of Cardiac Arrhythmias” (United States Government as Represented by The Department …, priority 2013, published 2016):
Positions count from the first letter of the chain named. Entries after “also recorded” stand apart in the source; their conditions may differ.

What was measured:
Cav1-cSrc binding [1] = experiment: Co-immunoprecipitation with Cav1 in ACE8/8 LV, cSrc; type: in vivo, mouse; conditions: ACE8/8 mice, MitoTEMPO 0.7 mg/kg/day i.p. for 2 weeks, n=6
Method: (§1) Immunoprecipitation (IP) of Cav1 was conducted using a magnetic IP kit from Thermo Scientific (Waltham, Mass.). Protein lysates from total LV or isolated LV myocytes (with 1000 μg total protein) from control and ACES/8 mice were incubated with 10 μg of mouse anti-Cav1 monoclonal antibodies overnight at 4° C.
(§2) The immune complex was bound to protein A/G magnetic beads and collected with a magnetic stand. Proteins co-immunoprecipitated with Cav1 were eluted and subjected to gel electrophoresis and Western blotting using the antibodies described above where appropriate. The amount of proteins co-immunoprecipitated with Cav1 was normalized to total Cav1 co-immunoprecipitated in each sample. Similar methods were used to analyze the proteins that co-immunoprecipitated with Cav3 and cSrc using antibodies against Cav3 (mouse monoclonal, BD Biosciences, San Jose, Calif.) or cSrc (rabbit monoclonal, Cell Signaling Technology, Danvers, Mass.).

ACE8/8 mice = conditions: cited from earlier work
Cav1-eNOS interaction = experiment: Co-immunoprecipitation with Cav1 in ACE8/8 LV, eNOS; type: in vivo, mouse; conditions: ACE8/8 mice, MitoTEMPO 0.7 mg/kg/day i.p. for 2 weeks, n=6
Method: as §1, §2

p-cSrc at Tyr416 = experiment: Western blot of LV protein lysates, p-cSrc; type: in vivo, mouse
Method: (§3) For Western blots, total protein lysates were prepared from the LV of 6 week-old WT control, ACE8/8 with and without 2 week treatment of mitochondria-targeted antioxidant (2-(2,2,6,6-Tetra-methylpiperidin-1-oxyl-4-ylamino)-2-oxoethyl)-triphenylphosphonium chloride (MitoTEMPO, see below), as well as from adult (2-4 month) Cav1−/− mice with and without 4 weeks treatment of cSrc inhibitor 1-(1,1-dimethylethyl)-[…]-1H-pyrazolo[3,4-d]pyrimidin-4-amine (PP1, see below).
(§4) In some cases, protein lysates were prepared from the LV cardiomyocytes isolated from ACE8/8 animals using described methods. 13 Total protein lysates were fractionated on 8-15% SDS-PAGE and transferred to PVDF membranes, incubated in 5% skim milk in PBS containing 0.1% Tween 20 (blocking buffer) for 1 h at room temperature, followed by overnight incubation at 4° C. with primary antibodies (rabbit monoclonal anti-cSrc, p-cSrc at Tyr416, Cx43, C-terminal Src kinase [CSK] and Tyr14 p-Cav1 antibodies from Cell Signaling, mouse monoclonal anti-Cav1 and Cav3 antibodies from BD Biosciences, rabbit monoclonal anti-eNOS, p-eNOS and nNOS antibodies from Santa Cruz).
(§5) For a loading control, the membranes were blotted with primary antibodies against glyceraldehydes-3-phosphate dehydrogenase (GAPDH) (Santa Cruz Biotech, Santa Cruz, Calif.). After washing, the membranes were incubated for 1 h at room temperature with alkaline phosphatase-conjugated secondary antibody diluted in blocking buffer, and bound antibodies were detected using a chemiluminescent alkaline phosphate substrate. Protein band intensities were quantified by densitometry (Quantity One Basic, Bio-Rad Laboratory, Hercules, Calif.) and the band densities of each protein in individual samples were normalized to that of GAPDH in the same sample.

Cx43 = experiment: Western blot of LV protein lysates, Cx43; type: in vivo, mouse
Method: as §3, §4, §5

C133S Cav1 = target: T1, C133S Cav1 (Mus musculus, UniProt P49817, C133S); experiment: Biotin-switch assay for Cav1 S-nitrosation in transfected HEK cells, C133S Cav1; type: cell-based; conditions: SNAP 20 μM, 10 min
T1 construct: A full-length mouse Cav1 cDNA clone in pCMV-SPORT6 vector; expressed in transfected cells; host or cells: HEK cells
T1 sequence (P49817 1-178 C133S): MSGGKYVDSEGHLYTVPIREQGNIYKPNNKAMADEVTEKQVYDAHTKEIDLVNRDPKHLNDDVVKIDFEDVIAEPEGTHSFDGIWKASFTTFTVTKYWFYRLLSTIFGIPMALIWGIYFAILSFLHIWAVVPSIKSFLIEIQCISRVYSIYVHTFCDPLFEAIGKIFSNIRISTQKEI
Method: (§6) A full-length mouse Cav1 cDNA clone in pCMV-SPORT6 vector was acquired from Thermo Scientific (MGC mouse Cav1 cDNA, clone ID 4484857). The cysteine-to-serine Cav1 mutants (C133S, C143S and C156S) were generated from this WT mouse Cav1 clone using the QuickChange II Site-Directed Mutagenesis kit (Agilent Technologies) according to the manufacturer's instructions.
(§7) Transfection of HEK cells with designated plasmids was conducted using Lipofectamine 2000 according to manufacturer's protocol.
(§8) S-nitrosated Cav1 was detected in cells (isolated ventricular cardiomyocytes from control and ACES/8 mice or HEK cells transfected with WT Cav1 or Cav1 mutants [C156S, C143S or C133S], with or without NO donor, SNAP [20 μM, 10 min], treatment) using the methods described in Jaffrey et al., Protein S-nitrosylation: a physiological signal for neuronal nitric oxide, Nat Cell Biol. 2001, 3:193-197; and Haendeler et al., Redox regulatory and anti-apoptotic functions of thioredoxin depend on S-nitrosylation at cysteine 69, Nat Cell Biol. 2002, 4:743-749. […]
(§9) After removing acetone, protein pellet was resuspended in HENS buffer. […] Cav1 was then immunoprecipitated from each sample using monoclonal Cav1 antibody (BD Biosciences, San Jose, Calif.), where S-nitrosated Cav1 was detected by HRP-conjugated streptavidin following gel electrophoresis and Western blotting. […]

C156S Cav1 = target: T2, C156S Cav1 (Mus musculus, UniProt P49817, C156S); experiment: Biotin-switch assay for Cav1 S-nitrosation in transfected HEK cells, C156S Cav1; type: cell-based; conditions: SNAP 20 μM, 10 min
T2 construct: A full-length mouse Cav1 cDNA clone in pCMV-SPORT6 vector; expressed in transfected cells; host or cells: HEK cells
T2 sequence (P49817 1-178 C156S): T1 sequence (P49817 1-178 C133S) with S133C, C156S
Method: as §6, §7, §8, §9

WT mouse Cav1 = target: T3, WT mouse Cav1 (Mus musculus, UniProt P49817); experiment: Biotin-switch assay for Cav1 S-nitrosation in transfected HEK cells, WT Cav1; type: cell-based; conditions: SNAP 20 μM, 10 min
T3 construct: A full-length mouse Cav1 cDNA clone in pCMV-SPORT6 vector; host or cells: HEK cells
T3 sequence (P49817 1-178): T1 sequence (P49817 1-178 C133S) with S133C
Method: as §7
S-nitrosated Cav1 was detected in cells (isolated ventricular cardiomyocytes from control and ACES/8 mice or HEK cells transfected with WT Cav1 or Cav1 mutants [C156S, C143S or C133S], with or without NO donor, SNAP [20 μM, 10 min], treatment) using the methods described in Jaffrey et al., Protein S-nitrosylation: a physiological signal for neuronal nitric oxide, Nat Cell Biol. 2001, 3:193-197; and Haendeler et al., Redox regulatory and anti-apoptotic functions of thioredoxin depend on S-nitrosylation at cysteine 69, Nat Cell Biol. 2002, 4:743-749.
Cells were lysed with HENS buffer (25 mM HEPES, pH 7.7, 0.1 mM EDTA, 0.01 mM neocuproine and 1% SDS) and centrifuged at 20,000 g for 15 min. The total cell protein was incubated in 20 mM methylmethanthiosulphate (MMTS) for 20 min at 50° C. and vortexed for 5 s every 2 min. Cellular protein was precipitated with acetone.
After removing acetone, protein pellet was resuspended in HENS buffer. […] Cav1 was then immunoprecipitated from each sample using monoclonal Cav1 antibody (BD Biosciences, San Jose, Calif.), where S-nitrosated Cav1 was detected by HRP-conjugated streptavidin following gel electrophoresis and Western blotting. The amount of S-nitrosated Cav1 was quantified and normalized to total Cav1 in each sample

Cav1-cSrc binding [2] = experiment: Co-immunoprecipitation in HEK cells co-transfected with mouse cSrc and Cav1; type: cell-based; conditions: 10 min
Method: as §1, §2, §7
To test if increased Cav1 SNO could result in Cav1-cSrc dissociation, human embryonic kidney (HEK) cells transfected with mouse Cav1 and cSrc were treated with 20 μM nitric oxide (NO) donor S-nitroso-N-acetyl-DL-penicillamine (SNAP) or vehicle for 10 min.

C143S Cav1 = target: T4, C143S Cav1 (Mus musculus, UniProt P49817, C143S); experiment: Biotin-switch assay for Cav1 S-nitrosation in transfected HEK cells, C143S Cav1; type: cell-based; conditions: SNAP 20 μM, 10 min
T4 construct: A full-length mouse Cav1 cDNA clone in pCMV-SPORT6 vector; expressed in transfected cells; host or cells: HEK cells
T4 sequence (P49817 1-178 C143S): T1 sequence (P49817 1-178 C133S) with S133C, C143S
Method: as §6, §7, §8, §9

Cav1−/− mice [3] = experiment: LV epicardial conduction velocity measurement (72-electrode Flex-MEA); type: in vivo, mouse
Method: LV conduction velocity was measured in anesthetized WT (n=6) and Cav1−/− (with and without 4 week PP1 treatment, n=6 in each group) mice using a flexible multielectrode array (Flex-MEA, 72 electrodes) system (Multichannel systems, Reutlingen, Germany) according to manufacturer's instructions.
Mid-anterior LV epicardial electrical propagation was recorded under right-ventricular pacing (750 bpm); the color mapping of LV conduction propagation, as well as the calculation of LV conduction velocity, were carried out using Cardio 2D software (Multichannel systems, Reutlingen, Germany)

Cav1−/− mice [4] = experiment: Programmed ventricular stimulation, ventricular arrhythmia inducibility; type: in vivo, mouse; conditions: 4 weeks of PP1, n=6, untreated Cav1−/− 75% inducible
Method: Surface electrocardiograms (ECG) were recorded and ventricular arrhythmia inducibility was determined in WT and Cav1^−/− with and without 4 weeks of PP1 treatment (n=4-6 in each group) using described methods under general anesthesia with isofurane as described in Berul et al., In vivo cardiac electrophysiology studies in the mouse, Circulation 1996, 94:2641-2648.
Surface electrocardiograms (ECG) were monitored and recorded with needle electrodes connected to a dual bioamplifier (PowerLab 26T, AD Instruments, Dunedin, New Zealand) as described in Yang et al., Exercise training and PI3Kα-induced electrical remodeling is independent of cellular hypertrophy and Akt signaling, J Mol Cell Cardiol. 2012, 53:532-541.
Programmed ventricular stimulation was performed with a RV epicardial electrode connected to STG1008 stimulator (Multichannel systems, Reutlingen, Germany), where eight consecutive beats were paced at 60 ms basic cycle length, followed by triple extrastimuli with incrementally deceasing cycle lengths between 20-55 ms, and inducible ventricular tachycardia was defined as >3 consecutive ventricular beats. See, Bevilacqua et al., A targeted disruption in connexin40 leads to distinct atrioventricular conduction defects, J Interv Card Electrophysiol. 2000, 4:459-467.

[5] = ACE8/8 mice, MitoTEMPO 0.7 mg/kg/day i.p. for 2 weeks
[6] = ACE8/8 mice, MitoTEMPO 0.7 mg/kg/day i.p. for 2 weeks, n=6
[7] = Cav1−/− mice, PP1 1.5 mg/kg/dose i.p. 3 times per week for 4 weeks, n=6, 1.5 mg/kg

In the case of `CC1(C)CC(NC(=O)C[P+](c2ccccc2)(c2ccccc2)c2ccccc2)CC(C)(C)N1[O]` [MitoTEMPO, (2-(2,2,6,6-Tetra-methylpiperidin-1-oxyl-4-ylamino)-2-oxoethyl)-triphenylphosphonium chloride], the “Cav1-cSrc binding in ACE8/8 LV (in words)” value (Cav1-cSrc binding [1]) is given as “reversed; also recorded: restored”, the “elevated mitoROS in ACE8/8 hearts” value (ACE8/8 mice; MitoTEMPO 0.7 mg/kg/day i.p. for 2 weeks, to levels similar to WT controls) is given as “normalizes” and the “Cx43 expression in ACE8/8 mice” value (ACE8/8 mice; from Sovari et al. 2013) is given as “restores”. For the same compound, the “gap junction conduction in ACE8/8 mice” value (ACE8/8 mice; from Sovari et al. 2013) was “normalizes”, the “ventricular arrhythmias and sudden cardiac death in ACE8/8 mice” value (ACE8/8 mice; from Sovari et al. 2013) was “ameliorates” and the “Cav1-eNOS interaction in ACE8/8 LV (in words)” value (Cav1-eNOS interaction) was “reversed; also recorded: significantly reduced”. For the same compound, the “reduction of cardiac cSrc phosphorylation compared to untreated ACE8/8 animals” value (p-cSrc at Tyr416; [5]) was 63%, the “cSrc activation/phosphorylation in ACE8/8 LV (in words)” value (p-cSrc at Tyr416; [6]) was “significantly attenuated” and the “increase of Cx43 expression compared to untreated ACE8/8 animals” value (Cx43; [5]) was 1.9 fold. The “Cx43 downregulation in ACE8/8 LV (in words)” value (Cx43; [6]) was “significantly attenuated”.

With `CC(=O)NC(C(=O)O)C(C)(C)SN=O` (racemic) [SNAP, S-nitroso-N-acetyl-DL-penicillamine] the “Cav1 SNO (S-nitrosation), C133S Cav1” value (C133S Cav1) was “significantly increased”, the “Cav1 SNO (S-nitrosation), C156S Cav1” value (C156S Cav1) was “not” and the “Cav1 SNO (S-nitrosation), WT Cav1” value (WT mouse Cav1) was “significantly increased”. For the same compound, the “interaction between cSrc and Cav1 (in words)” value (Cav1-cSrc binding [2]; HEK cells co-transfected with mouse cSrc and Cav1, SNAP 20 μM, n=4) was “reduced”, the “decrease of Cav1-cSrc binding compared to control” value (Cav1-cSrc binding [2]; HEK cells transfected with mouse Cav1 and cSrc, SNAP 20 μM) was 58% and the “Cav1 SNO (S-nitrosation), C143S Cav1” value (C143S Cav1) was “significantly increased”.

For `Cc1ccc(-c2nn(C(C)(C)C)c3ncnc(N)c23)cc1` [PP1, 1-(1,1-dimethylethyl)-1-(4-methylphenyl)-1H-pyrazolo[3,4-d]pyrimidin-4-amine], the “LV conduction velocity in Cav1−/− LV (in words)” value (Cav1−/− mice [3]; 4 weeks of PP1 treatment) was “normalized”, the LV conduction velocity (Cav1−/− mice [3]; PP1 1.5 mg/kg/dose i.p. 3 times per week for 4 weeks, n=6, untreated Cav1−/− 0.35±0.03, WT 0.50±0.09) was 0.43±0.01 mm/ms and the “LV p-cSrc expression / cSrc phosphorylation (in words)” value (p-cSrc at Tyr416; [7]) was “normalized; also recorded: prevented”. For the same compound, the “inducible for ventricular arrhythmias / VT with programmed stimulation” value (Cav1−/− mice [4]) was 0% and the “LV Cx43 expression / Cx43 downregulation (in words)” value (Cx43; [7]) was “normalized; also recorded: prevented”.
